Data published in patent publication US20060069132A1, “Azolecarboxamide herbicides” (priority 2004, published 2006).

Tests used:
velvetleaf = assay: Test A pre-/postemergence herbicide test; type: in vivo, Abutilon theophrasti
In short: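 Visual injury scores on a 0–100 scale (100 = complete control) taken about ten days post-treatment in greenhouse against untreated controls; dash means no result. Treatments: preemergence soil spray and postemergence spray to runoff on one- to two-leaf plants 2 to 10 cm tall, surfactant-containing formulation.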

rice [1] = assay: Test B pre-/postemergence herbicide test; type: in vivo, Oryza sativa; conditions: 0 = no effect, 100 = complete control, preemergence; for Rice plant response rating (0 to 100 scale): 125 g ai/ha; for Plant response rating, Rice: 500 g ai/ha, visual rating
In short: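 Test chemicals in a non-phytotoxic solvent mixture with surfactant were applied preemergence to seeded species and postemergence to plants 2-18 cm tall (1- to 4-leaf stage); rice and barnyardgrass were also tested in a flooded paddy at the 2-leaf stage. Visual rating versus controls after 13-15 days in greenhouse, scale 0 (no effect) to 100 (complete control).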

large crabgrass = assay: Test C pre-/postemergence herbicide test; type: in vivo, Digitaria sanguinalis; conditions: preemergence
In short: (§1)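 Visual ratings on a 0–100 scale (100 = complete control) made versus untreated controls after 12 to 14 greenhouse days. Test chemicals, formulated in surfactant-containing non-phytotoxic solvent, applied preemergence to planted seeds or postemergence to 1- to 4-leaf plants (2 to 18 cm).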

woolly cupgrass = assay: Test C pre-/postemergence herbicide test; type: in vivo, Eriochloa villosa; conditions: preemergence
In short: as §1

giant foxtail = assay: Test C pre-/postemergence herbicide test; type: in vivo, Setaria faberi; conditions: preemergence
In short: as §1

lambsquarters = assay: Test C pre-/postemergence herbicide test; type: in vivo, Chenopodium album; conditions: preemergence
In short: as §1

pigweed = assay: Test C pre-/postemergence herbicide test; type: in vivo, Amaranthus retroflexus; conditions: preemergence
In short: as §1

[2] = system: common (oilseed) sunflower; assay: Test C pre-/postemergence herbicide test; type: in vivo, Helianthus annuus; conditions: preemergence
In short: as §1

rice [3] = assay: Test C flooded paddy test; type: in vivo, Oryza sativa; conditions: for Plant response rating, Rice: 500 g ai/ha, visual rating after 12 to 14 days
In short: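 Plants were grown to the 1- to 4-leaf stage (2–18 cm) and then treated postemergence, or grown to the 2-leaf stage for the flooded paddy test. They were held in a greenhouse for 12 to 14 days and then scored by eye against controls, where 0 is no effect and 100 is complete control.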

[4] = system: smallflower umbrella sedge; assay: Test C flooded paddy test; type: in vivo, Cyperus difformis; conditions: for Plant response rating, Sedge, Umbrella: 500 g ai/ha, visual rating after 12 to 14 days
[5] = Postemergence, 500 g ai/ha, 0 to 100 scale, 0 no effect, 100 complete control
[6] = Postemergence, 2000 g ai/ha, 0 to 100 scale, 0 no effect, 100 complete control
[7] = Preemergence, 2000 g ai/ha, visual rating, 0 to 100 scale (0 no effect, 100 complete control)
[8] = preemergence, 500 g ai/ha, visual injury, 0 to 100 scale (0 no effect, 100 complete control)
[9] = 125 g ai/ha, scale 0 (no effect) to 100 (complete control), visual, 12 to 14 days
[10] = 500 g ai/ha, scale 0 to 100 (0 no effect, 100 complete control), visual, 12 to 14 days
[11] = 62 g ai/ha, scale 0 to 100 (0 no effect, 100 complete control)
[12] = 125 g ai/ha, scale 0 to 100 (0 no effect, 100 complete control)
[13] = 250 g ai/ha, scale of 0 to 100, 0 is no effect, 100 is complete control
[14] = scale 0 to 100 (0 no effect, 100 complete control)

Compound: CCc1nc(C(C)(C)C)sc1C(=O)Nc1cccc(C(=O)NCC2CC2)n1 [Compound 215]
- Velvetleaf plant response rating (velvetleaf; [5]): 30
- Plant response rating, Velvetleaf (velvetleaf; [6]): 30
- Velvetleaf plant response rating (velvetleaf; [7]): 30
- Velvetleaf plant response rating (velvetleaf; [8]): 15
- Rice plant response rating (0 to 100 scale) (rice [1]): 0
- Plant response rating, Rice (rice [1]): 0
- Plant response rating, Crabgrass, Large (large crabgrass; 62 g ai/ha, scale 0 to 100): 0
- Plant response rating, Crabgrass, Large (large crabgrass; [9]): 70
- Plant response rating, Crabgrass, Large (large crabgrass; 250 g ai/ha, scale 0-100): 85
- Plant response rating, Crabgrass, Large (large crabgrass; [10]): 100
- Plant response rating, Cupgrass, Woolly (woolly cupgrass; 62 g ai/ha, scale 0 to 100): 0
- Plant response rating, Cupgrass, Woolly (woolly cupgrass; [9]): 10
- Plant response rating, Cupgrass, Woolly (woolly cupgrass; 250 g ai/ha, scale 0-100): 40
- Plant response rating, Cupgrass, Woolly (woolly cupgrass; [10]): 50
- Plant response rating, Foxtail, Giant (giant foxtail; 62 g ai/ha, scale 0 to 100): 0
- Plant response rating, Foxtail, Giant (giant foxtail; [9]): 50
- Plant response rating, Foxtail, Giant (giant foxtail; 250 g ai/ha, scale 0-100): 70
- Plant response rating, Foxtail, Giant (giant foxtail; [10]): 100
- Plant response rating, Lambsquarters (lambsquarters; 62 g ai/ha, scale 0 to 100): 100
- Plant response rating, Lambsquarters (lambsquarters; [9]): 100
- Plant response rating, Lambsquarters (lambsquarters; 250 g ai/ha, scale 0-100): 100
- Plant response rating, Lambsquarters (lambsquarters; [10]): 100
- Plant response rating, Pigweed (pigweed; 62 g ai/ha, scale 0 to 100): 80
- Plant response rating, Pigweed (pigweed; [9]): 100
- Plant response rating, Pigweed (pigweed; 250 g ai/ha, scale 0-100): 100
- Plant response rating, Pigweed (pigweed; [10]): 100
- Plant response rating, Sunflower ([2]; 62 g ai/ha, scale 0 to 100): 0
- Plant response rating, Sunflower ([2]; 250 g ai/ha, scale 0-100): 0
- Plant response rating, Sunflower [2, 10]: 0
- Rice plant response rating (rice [3]; [11]): 0
- Rice plant response rating (rice [3]; [12]): 0
- Rice plant response rating (rice [3]; [13]): 0
- Plant response rating, Rice (rice [3]; [14]): 20
- Sedge, Umbrella plant response rating [4, 11]: 40
- Sedge, Umbrella plant response rating [4, 12]: 40
- Sedge, Umbrella plant response rating [4, 13]: 70
- Plant response rating, Sedge, Umbrella [4, 14]: 90

Compound: CCn1nc(C(C)(C)C)cc1C(=O)Nc1cncc(C(=O)N(C)C)n1 [Compound 287]
- Velvetleaf plant response rating (velvetleaf; [5]): 55
- Plant response rating, Velvetleaf (velvetleaf; [6]): 65
- Velvetleaf plant response rating (velvetleaf; [7]): 100
- Velvetleaf plant response rating (velvetleaf; [8]): 50
- Rice plant response rating (0 to 100 scale) (rice [1]): 80
- Plant response rating, Rice (rice [1]): 90
- Plant response rating, Crabgrass, Large (large crabgrass; 62 g ai/ha, scale 0 to 100): 65
- Plant response rating, Crabgrass, Large (large crabgrass; [9]): 95
- Plant response rating, Crabgrass, Large (large crabgrass; 250 g ai/ha, scale 0-100): 95
- Plant response rating, Crabgrass, Large (large crabgrass; [10]): 100
- Plant response rating, Cupgrass, Woolly (woolly cupgrass; 62 g ai/ha, scale 0 to 100): 0
- Plant response rating, Cupgrass, Woolly (woolly cupgrass; [9]): 0
- Plant response rating, Cupgrass, Woolly (woolly cupgrass; 250 g ai/ha, scale 0-100): 10
- Plant response rating, Cupgrass, Woolly (woolly cupgrass; [10]): 35
- Plant response rating, Foxtail, Giant (giant foxtail; 62 g ai/ha, scale 0 to 100): 0
- Plant response rating, Foxtail, Giant (giant foxtail; [9]): 70
- Plant response rating, Foxtail, Giant (giant foxtail; 250 g ai/ha, scale 0-100): 85
- Plant response rating, Foxtail, Giant (giant foxtail; [10]): 100
- Plant response rating, Lambsquarters (lambsquarters; 62 g ai/ha, scale 0 to 100): 100
- Plant response rating, Lambsquarters (lambsquarters; [9]): 100
- Plant response rating, Lambsquarters (lambsquarters; 250 g ai/ha, scale 0-100): 100
- Plant response rating, Lambsquarters (lambsquarters; [10]): 100
- Plant response rating, Pigweed (pigweed; 62 g ai/ha, scale 0 to 100): 100
- Plant response rating, Pigweed (pigweed; [9]): 100
- Plant response rating, Pigweed (pigweed; 250 g ai/ha, scale 0-100): 100
- Plant response rating, Pigweed (pigweed; [10]): 100
- Plant response rating, Sunflower ([2]; 62 g ai/ha, scale 0 to 100): 90
- Plant response rating, Sunflower ([2]; 250 g ai/ha, scale 0-100): 100
- Plant response rating, Sunflower [2, 10]: 100
- Rice plant response rating (rice [3]; 62 g ai/ha, scale 0 to 100): 0
- Rice plant response rating (rice [3]; [12]): 20
- Rice plant response rating (rice [3]; [13]): 25
- Plant response rating, Rice (rice [3]; [14]): 55
- Sedge, Umbrella plant response rating ([4]; 62 g ai/ha, scale 0 to 100): 0
- Sedge, Umbrella plant response rating [4, 12]: 35
- Sedge, Umbrella plant response rating [4, 13]: 70
- Plant response rating, Sedge, Umbrella [4, 14]: 75
